Converted amounts (≈) assume the structure as drawn.
Assays:
[1] = Reduction of H3K27me3 level in human Karpas-422 cells xenografted Athymic BALB/c nude mouse tumor assessed at 10 mg/kg, po twice a day for 21 days; type: functional; set-up: scale not given: the % may be the effect or the level left; settings: time 21 day
[2] = Inhibition of PRC2 (unknown origin) assessed as reduction in H3K27 trimethylation using H3K27Me0 peptide (21 to 44 residues) as substrate by measuring SAH formation by LC-MS analysis; set-up: species or system Homo sapiens
[3] = Dissociation constant, pKa of compound; type: physicochemical
[4] = Oral bioavailability in Sprague-Dawley rat at 2 mg/kg; type: ADME, organism-based; settings: in vivo
[5] = target: T1, Cytochrome P450 3A4 (Homo sapiens, UniProt P08684); test: Inhibition of CYP3A4 in human liver microsomes using midazolam as substrate incubated for 10 mins in presence of NADPH by LC-MS/MS analysis; type: ADME, Microsome
[6] = High throughput solubility of the compound at pH 7 after 16 to 24 hrs by MS/MS analysis; type: physicochemical; settings: buffer, time 16-24 hrs, read-out: solubility
[7] = High throughput solubility of the compound in SGF after 16 to 24 hrs by MS/MS analysis; type: physicochemical; settings: time 16-24 hrs
[8] = High throughput solubility of the compound in FaSSIF after 16 to 24 hrs by MS/MS analysis; type: physicochemical; settings: time 16-24 hrs
[9] = Unbound plasma concentration in Athymic BALB/c nude mouse xenografted with human Karpas-422 cells at 10 to 300 mg/kg, po after 12 hrs by HPLC-MS/MS analysis; type: ADME, organism-based; settings: in vivo, dose 10-300 mg/kg
[10] = Toxicity in Athymic BALB/c nude mouse xenografted with human Karpas-422 cells assessed as tolerability by measuring body weight at 10 to 300 mg/kg, po twice a day for 30 days; type: organism-based; settings: in vivo, 720 h, dose 10-300 mg/kg, time 30 day
[11] = Antitumor activity against human Karpas-422 cells xenografted Athymic BALB/c nude mouse assessed as inhibition of tumor growth at 3 to 100 mg/kg, po bid, for 30 days treatment started at twenty fifth day after cancer cell implantation and followed by stop dosing measured upto 70 days; type: functional; set-up: scale not given: the % may be the effect or the level left; settings: dose 3-100 mg/kg, time 30 day
[12] = Antitumor activity against human Karpas-422 cells xenografted Athymic BALB/c nude mouse assessed as inhibition of tumor growth at 300 mg/kg, po for 23 days; type: functional; set-up: scale not given: the % may be the effect or the level left; settings: time 23 day
[13] = Antitumor activity against human Karpas-422 cells xenografted Athymic BALB/c nude mouse assessed as minimum effective dose administered twice a day for 30 days; type: functional; settings: KARPAS-422, 720 h, time 30 day, read-out: MED
[14] = In vivo inhibition of PRC2 in PBMC collected from human Karpas-422 cells xenografted Athymic NTac:NIH-Whn nude rat assessed as reduction in H3K27me3 level at 0.3 mg/kg, po, qd for 52 days measured after 4 hrs of last dose by FACS method; type: functional; set-up: scale not given: the % may be the effect or the level left; settings: time 52 day
[15] = Ratio of drug level in rat blood to plasma; type: ADME, cell-free
[16] = Oral biovailability in ICR (CD-1) mouse at 2 mg/kg, po; type: ADME, organism-based; settings: in vivo
[17] = Oral biovailability in Beagle dog at 2 mg/kg, po; type: ADME, organism-based, Canis lupus familiaris; settings: in vivo
[18] = Volume of distribution at steady state ICR (CD-1) mouse at 2 mg/kg, po or 1 mg/kg, iv after 1 week by LC-MS/MS analysis; type: ADME, organism-based; settings: in vivo, 168 h, time 1 weeks
[19] = Volume of distribution at steady state in wild type Beagle dog at 2 mg/kg, po or 1 mg/kg, iv after 1 week by LC-MS/MS analysis; type: ADME, organism-based, Canis lupus familiaris; settings: in vivo, 168 h, time 1 weeks
[20] = Terminal half life in ICR (CD-1) mouse at 2 mg/kg, po or 1 mg/kg, iv after 1 week by LC-MS/MS analysis; type: ADME, organism-based; settings: in vivo, time 1 weeks, read-out: beta t1/2 (converted)
[21] = Terminal half life in wild type Beagle dog at 2 mg/kg, po or 1 mg/kg, iv after 1 week by LC-MS/MS analysis; type: ADME, organism-based, Canis lupus familiaris; settings: in vivo, time 1 weeks, read-out: beta t1/2 (converted)
[22] = Dose normalized AUC in Sprague-Dawley rat at 2 mg/kg, po or 1 mg/kg, iv after 1 week by LC-MS/MS analysis; type: ADME, organism-based; settings: in vivo, 168 h, time 1 weeks
[23] = Dose normalized Cmax in wild type Beagle dog at 2 mg/kg, po or 1 mg/kg, iv after 1 week by LC-MS/MS analysis; type: ADME, organism-based, Canis lupus familiaris; settings: in vivo, 168 h, time 1 weeks
[24] = Metabolic stability in human microsomes assessed as intrinsic clearance; type: ADME, Microsome; settings: read-out: CLH
[25] = Intrinsic clearance in dog hepatocytes measured per 10^6 cells; type: ADME, cell-based, Canis lupus familiaris, Hepatocyte; settings: read-out: CLH
[26] = Plasma clearance in mouse; type: ADME, cell-free
[27] = Plasma clearance in rat; type: ADME, cell-free
[28] = Plasma clearance in mouse assessed as hepatic extraction; type: ADME, cell-free; settings: read-out: ERH
[29] = Plasma clearance in rat assessed as hepatic extraction; type: ADME, cell-free; settings: read-out: ERH
[30] = Plasma protein binding in mouse at 1 uM measured after 6 hrs LC-MS/MS analysis; type: ADME, cell-free; settings: read-out: PPB (converted)
[31] = Plasma protein binding in rat at 1 uM measured after 6 hrs LC-MS/MS analysis; type: ADME, cell-free; settings: read-out: PPB (converted)
[32] = Plasma protein binding in human at 1 uM measured after 6 hrs LC-MS/MS analysis; type: ADME, cell-free; settings: read-out: PPB (converted)
[33] = Ratio of drug level in dog blood to plasma; type: ADME, cell-free, Canis lupus familiaris; settings: whole blood
[34] = Plasma clearance in human assessed as hepatic extraction; type: ADME, cell-free
[35] = High throughput solubility of the compound at pH 4 after 16 to 24 hrs by MS/MS analysis; type: physicochemical; settings: buffer, time 16-24 hrs
[36] = target: Synaptic vesicular amine transporter (Homo sapiens, UniProt Q05940); test: Inhibition of vesicular monoamine transporter 2 (unknown origin)
[37] = target: Voltage-gated inwardly rectifying potassium channel KCNH2 (Homo sapiens, UniProt Q12809); test: Inhibition of hERG potassium channel in HEK293 cells by Q-patch clamp assay; type: toxicity, cell-based
[38] = Mutagenecity in Salmonella typhimurium TA98 by Ames test; type: toxicity; settings: salmonella enterica subsp. enterica serovar typhimurium
[39] = target: T1, Cytochrome P450 3A4; test: Inhibition of CYP3A4 in human liver microsomes using midazolam as substrate incubated for 10 mins by LC-MS/MS analysis; type: ADME, Microsome
[40] = target: Cytochrome P450 2C9 (Homo sapiens, UniProt P11712); test: Inhibition of CYP2C9 human liver microsomes using diclofenac as substrate incubated for 15 mins by LC-MS/MS analysis; type: ADME, Microsome
[41] = target: Cytochrome P450 3A5 (Homo sapiens, UniProt P20815); test: Inhibition of CYP3A5 in human liver microsomes by LC-MS/MS analysis; type: ADME, Microsome
[42] = Drugmetabolism in human hepatocytes assessed as metabolite formation; type: ADME, cell-based, Hepatocyte
[43] = Drugmetabolism in rat hepatocytes assessed as CYP3A4 mediated metabolite formation; type: ADME, cell-based, Hepatocyte
[44] = Drugmetabolism in dog hepatocytes assessed as CYP3A4 mediated metabolite formation; type: ADME, cell-based, Canis lupus familiaris, Hepatocyte
[45] = Drug metabolism in bile duct cannulated Wistar Han rat assessed as parent compound recovery in bile at 3 mg/kg, iv after 8 hrs by LC-MS/MS analysis; type: ADME, organism-based; settings: read-out: Drug metabolism
[46] = Drug metabolism in bile duct cannulated Wistar Han rat assessed as parent compound recovery in urine at 3 mg/kg, iv after 8 hrs by LC-MS/MS analysis; type: ADME, organism-based; settings: read-out: Drug metabolism

T1 sequence (P08684 whole entry): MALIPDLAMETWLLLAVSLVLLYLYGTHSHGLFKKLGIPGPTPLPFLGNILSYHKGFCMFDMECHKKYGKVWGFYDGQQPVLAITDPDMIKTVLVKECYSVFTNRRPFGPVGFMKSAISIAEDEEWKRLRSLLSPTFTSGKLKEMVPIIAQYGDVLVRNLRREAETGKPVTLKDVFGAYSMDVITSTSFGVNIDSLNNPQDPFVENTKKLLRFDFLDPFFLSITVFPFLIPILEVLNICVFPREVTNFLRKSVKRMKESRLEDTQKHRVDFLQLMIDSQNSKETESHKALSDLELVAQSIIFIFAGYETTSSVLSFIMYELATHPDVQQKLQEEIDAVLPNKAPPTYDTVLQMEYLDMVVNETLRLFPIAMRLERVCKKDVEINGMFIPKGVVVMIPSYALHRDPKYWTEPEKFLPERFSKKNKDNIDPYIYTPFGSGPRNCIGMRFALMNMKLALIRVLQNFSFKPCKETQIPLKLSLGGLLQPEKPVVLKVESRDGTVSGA
Sequence of Voltage-gated inwardly rectifying potassium channel KCNH2 (Q12809 whole entry): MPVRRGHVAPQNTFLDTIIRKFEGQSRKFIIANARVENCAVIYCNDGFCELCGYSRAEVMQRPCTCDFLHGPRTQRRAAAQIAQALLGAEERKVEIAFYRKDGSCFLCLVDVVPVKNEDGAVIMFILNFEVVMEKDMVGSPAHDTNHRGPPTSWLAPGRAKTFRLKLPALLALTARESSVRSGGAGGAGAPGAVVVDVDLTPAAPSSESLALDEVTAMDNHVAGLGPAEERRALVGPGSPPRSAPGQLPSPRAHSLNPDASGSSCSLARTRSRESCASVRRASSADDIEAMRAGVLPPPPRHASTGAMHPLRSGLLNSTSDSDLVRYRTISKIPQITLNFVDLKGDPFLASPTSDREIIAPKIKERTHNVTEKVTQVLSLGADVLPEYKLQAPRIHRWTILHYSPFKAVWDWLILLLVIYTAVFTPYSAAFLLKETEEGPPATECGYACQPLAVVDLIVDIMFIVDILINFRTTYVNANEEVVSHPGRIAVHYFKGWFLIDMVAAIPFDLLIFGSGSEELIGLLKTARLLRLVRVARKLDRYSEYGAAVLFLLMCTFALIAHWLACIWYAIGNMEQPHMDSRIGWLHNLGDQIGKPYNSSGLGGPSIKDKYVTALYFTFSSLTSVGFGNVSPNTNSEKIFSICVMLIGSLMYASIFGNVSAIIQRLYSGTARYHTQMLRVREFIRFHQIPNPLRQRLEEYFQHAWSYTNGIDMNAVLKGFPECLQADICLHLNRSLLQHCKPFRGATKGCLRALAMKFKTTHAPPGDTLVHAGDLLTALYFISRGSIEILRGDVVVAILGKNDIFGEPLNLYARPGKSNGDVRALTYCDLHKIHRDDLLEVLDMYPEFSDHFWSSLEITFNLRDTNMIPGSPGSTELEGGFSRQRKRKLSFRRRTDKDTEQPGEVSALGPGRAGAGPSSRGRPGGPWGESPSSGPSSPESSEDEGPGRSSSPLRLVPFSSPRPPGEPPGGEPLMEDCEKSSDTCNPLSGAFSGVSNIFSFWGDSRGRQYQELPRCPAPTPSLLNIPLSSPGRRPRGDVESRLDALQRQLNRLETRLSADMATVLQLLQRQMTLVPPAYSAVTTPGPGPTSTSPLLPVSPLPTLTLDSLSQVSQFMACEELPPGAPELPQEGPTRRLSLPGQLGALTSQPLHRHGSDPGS
Sequence of Cytochrome P450 3A5 (P20815 whole entry): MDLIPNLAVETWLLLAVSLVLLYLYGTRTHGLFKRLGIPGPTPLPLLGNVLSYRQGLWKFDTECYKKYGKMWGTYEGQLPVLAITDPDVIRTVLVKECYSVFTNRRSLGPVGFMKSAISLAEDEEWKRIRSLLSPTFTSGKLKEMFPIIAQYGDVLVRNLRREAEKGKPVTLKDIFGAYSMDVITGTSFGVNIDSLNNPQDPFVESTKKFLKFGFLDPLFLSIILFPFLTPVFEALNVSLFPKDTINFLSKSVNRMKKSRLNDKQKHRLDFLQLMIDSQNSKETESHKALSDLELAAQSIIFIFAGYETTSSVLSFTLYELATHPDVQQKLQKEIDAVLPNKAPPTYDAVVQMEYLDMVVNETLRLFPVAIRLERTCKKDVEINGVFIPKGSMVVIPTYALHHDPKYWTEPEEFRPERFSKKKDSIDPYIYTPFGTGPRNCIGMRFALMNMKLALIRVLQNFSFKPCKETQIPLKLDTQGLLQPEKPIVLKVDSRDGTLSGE
Sequence of Synaptic vesicular amine transporter (Q05940 whole entry): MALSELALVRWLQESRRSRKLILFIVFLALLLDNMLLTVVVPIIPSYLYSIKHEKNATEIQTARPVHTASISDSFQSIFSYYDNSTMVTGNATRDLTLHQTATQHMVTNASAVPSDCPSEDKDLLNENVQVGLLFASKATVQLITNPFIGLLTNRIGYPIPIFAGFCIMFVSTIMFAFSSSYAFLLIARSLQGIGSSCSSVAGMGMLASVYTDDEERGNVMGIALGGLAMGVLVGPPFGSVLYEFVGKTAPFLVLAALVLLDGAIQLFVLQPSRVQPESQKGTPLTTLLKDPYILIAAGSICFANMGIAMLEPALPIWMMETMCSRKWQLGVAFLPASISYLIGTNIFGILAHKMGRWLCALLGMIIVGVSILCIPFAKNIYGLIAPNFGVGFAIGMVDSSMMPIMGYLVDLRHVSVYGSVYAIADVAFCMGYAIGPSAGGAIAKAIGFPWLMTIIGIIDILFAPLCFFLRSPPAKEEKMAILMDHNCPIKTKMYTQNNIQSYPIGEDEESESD
Sequence of Cytochrome P450 2C9 (P11712 whole entry): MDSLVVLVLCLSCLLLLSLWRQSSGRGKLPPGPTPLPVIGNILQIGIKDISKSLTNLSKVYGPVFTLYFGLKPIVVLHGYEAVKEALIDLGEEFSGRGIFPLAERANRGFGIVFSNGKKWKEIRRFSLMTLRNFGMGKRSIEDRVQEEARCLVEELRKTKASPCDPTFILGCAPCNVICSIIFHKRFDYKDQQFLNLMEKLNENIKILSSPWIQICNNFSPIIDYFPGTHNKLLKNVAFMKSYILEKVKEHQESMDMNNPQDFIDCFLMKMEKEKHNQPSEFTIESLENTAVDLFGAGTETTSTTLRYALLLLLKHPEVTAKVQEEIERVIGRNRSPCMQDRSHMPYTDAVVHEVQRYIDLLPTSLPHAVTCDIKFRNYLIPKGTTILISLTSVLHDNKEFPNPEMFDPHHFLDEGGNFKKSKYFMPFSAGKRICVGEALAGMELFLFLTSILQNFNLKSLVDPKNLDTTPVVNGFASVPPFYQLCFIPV

IC50 [2]: 9 µM
pKa [3]: 5.2
bioavailability [4]: 69%
IC50 [5]: > 20 µM
solubility [6]: 19 µM (≈ 7.15 µg/mL)
solubility [7]: 8740 µM (≈ 3290 µg/mL)
solubility [8]: 25 µM (≈ 9.41 µg/mL)
Cp(f) [9]: 8 nM
blood plasma ratio [15]: 0.98
bioavailability [16]: 77%
bioavailability [17]: 73%
Vdss [18]: 3.5 L/kg
Vdss [19]: 1 L/kg
half-life [20]: 1.5 h
half-life [21]: 1.2 h
AUC/dose [22]: 2939 nM·h
Cmax/dose [23]: 400 nM
microsomal CLint [24]: 33 µL/min/mg
hepatocyte CLint [25]: 4.8 µL/min/1e6 cells
clearance [26]: 38 mL/min/kg
clearance [27]: 10 mL/min/kg
hepatic extraction ratio [28]: 0.42
hepatic extraction ratio [29]: 0.18
fraction unbound at 6 h, 1 µM [30]: 0.15
fraction unbound at 6 h, 1 µM [31]: 0.13
fraction unbound at 6 h, 1 µM [32]: 0.08
blood plasma ratio [33]: 0.72
CLH [34]: 1.6 mL/min/kg
solubility [35]: 266 µM (≈ 100 µg/mL)
IC50 [36]: 1.8 µM
IC50 [39]: > 18 µM
IC50 [40]: > 18 µM
IC50 [41]: > 18 µM
Drug metabolism [42]: Metabolite_Notdetected
Drug metabolism [43]: Metabolite_Detected
Drug metabolism [44]: Metabolite_Detected
dose excreted at 8 h [45]: 0.3%
dose excreted at 8 h [46]: 0.5%
SMILES: Cc1ncccc1-c1cnc(NCc2c(F)ccc3c2CCO3)n2cnnc12
Activity [1]: >50%
Activity [10]: Non-Toxic
Activity [11]: 100%
Activity [12]: 100%
minimal effective dose [13]: 3 mg/kg
Activity [14]: 20%
IC50 [37]: > 30 µM
Activity [38]: Non-Toxic

From ChEMBL document CHEMBL5154826, “Discovery of the Clinical Candidate MAK683: An EED-Directed, Allosteric, and Selective PRC2 Inhibitor for the Treatment of Advanced Malignancies” (J Med Chem, 2022)
